Measurements reported in US9814707B2, “Cancer stem cell proliferation inhibitor and intracellular active oxygen accumulation inducer” (Keio University, priority 2014, dated 2017).

What was measured:
[1] = test system: HSC2, HSC3, HSC4, and OSC19 cells; assay: Sensitivity of squamous cell carcinoma cell lines to cisplatin, cell viability by Celltiter-Glo after 72 hours; format: cell-based; conditions: OSC19 compared with HSC2, HSC3, and HSC4, cisplatin 1, 2.5, 5, 7.5 μM, FIG. 3
Experimental: Next, GSH levels in the cells were measured using GSH-Glo™ Glutathione Assay (Promega) to examine the correlation with the CD44v expression. Furthermore, in order to examine the sensitivity of the cell lines in which CD44 expression is suppressed to cisplatin, each cell line was seeded onto a 96-well plate at 2000 cells/well and cisplatin was added the following day at concentrations of 1, 2.5, 5, and 7.5 μM. After 72 hours, the cell viability was measured using Celltiter-Glo (Promega).

OSC19 = assay: Combined use of pimozide and sulfasalazine, cell viability by CellTiter-Glo after 72 hours; format: cell-based; conditions: 150 μM of sulfasalazine alone, OSC19, 72 hours
Experimental: Oral squamous cell carcinoma cell line, OSC19, was seeded onto 96-well plates at 3000 cells/well. On the following day, a combination of 0 μM (no addition; only DMSO), 1 μM, 2 μM, or 3 μM of pimozide, and 0 μM (no addition; only DMSO), 10 μM, 50 μM, 100 μM, 150 μM, or 200 μM of sulfasalazine was added. Subsequently, cells were incubated for 72 hours, and cell viability was measured using a CellTiter-Glo Luminescent Cell Viability Assay kit (Promega). Effects obtained using pimozide and sulfasalazine at different concentrations are shown in a graph in FIG. 14.

OSC19 and HSC4 cells [2] = assay: Cell viability by Celltiter-Glo after 72 hours with pimozide or sulfasalazine; format: cell-based; conditions: FIGS. 7 and 8; for sensitivity of OSC19 cells versus HSC4 cells (cell viability): pimozide 0.3-100 μM, sulfasalazine 10-1000 μM
Experimental: Cell viability was examined for OSC19 and HSC4 cells incubated in a medium supplemented with US077 (pimozide). […] OSC19 and HSC4 cells were seeded in 96-well plates at 3000 cells/well and 2000 cells/well, respectively. On the following day, 0 μM (no addition), 0.3 μM, 1 μM, 3 μM, 10 μM, 30 μM, or 100 μM of pimozide or 0 μM (no addition), 10 μM, 30 μM, 100 μM, 300 μM, or 1000 μM of sulfasalazine were added. Then, the cells were incubated for 72 hours and cell viability was measured using Celltiter-Glo (Promega).

OSC19 and HSC4 cells [3] = assay: Intracellular reactive oxygen species by H2DCFDA staining with pimozide or sulfasalazine; format: cell-based; conditions: 24 hours, FIG. 11; for inductive effect on intracellular accumulation of reactive oxygen species, OSC19 versus HSC4: pimozide 1, 3, 10 μM, sulfasalazine 300 μM
Experimental: OSC19 and HSC4 cells were seeded onto 24-well glass-bottomed plate at 1×10^5 cells/well. On the following day, 0 μM (no addition), 1 μM, 3 μM, or 10 μM of pimozide or 300 μM of sulfasalazine was added. Subsequently, the cells were incubated for 24 hours, stained with H2DCFDA to visualize intracellular reactive oxygen species, and observed under a fluorescence microscope.

OSC19 cells [4] = assay: Ratio of H2DCFDA-stained cells to Hoechst33342-stained cells with sertindole or sulfasalazine; format: cell-based; conditions: 10 μM sertindole versus 300 μM sulfasalazine, 24 hours; FIG. 13
Experimental: OSC19 cells were seeded onto 24-well glass-bottomed plate at 1×10^5 cells/well and started to be incubated. Two days after the beginning of the incubation, 0.1 μM, 1 μM, or 10 μM of sertindole or 300 μM of sulfasalazine was added. DMSO was added to the control. The cells were then incubated for 24 hours, and 2′,7′-dichloro-dihydro-fluorescein-diacetate (H2DCFDA), which is a redox fluorescence indicator capable of emitting fluorescence when oxidized by reactive oxygen species in cells and Hoechst33342 that stains a cell nucleus were added. A ratio of the number of cells stained with H2DCFDA to the number of cells stained with Hoechst33342 was calculated.

OSC19 and HSC4 cells [5] = assay: Cell viability by Celltiter-Glo after 72-hour incubation with sertindole; format: cell-based; conditions: sertindole 0.19-45.00 μM, FIG. 12
Experimental: OSC19 and HSC4 cells were seeded in 96-well plates at 3000 cells/well and 2000 cells/well, respectively, and started to be incubated. Two days after the beginning of the incubation, 0 μM (no addition), 0.19 μM, 0.56 μM, 1.67 μM, 5.00 μM, 15.00 μM, or 45.00 μM of sertindole was added. After 72-hour incubation, the number of the survived cells was measured using Celltiter-Glo (registered trademark) (Luminescent Cell Viability Assay; Promega). A ratio of the number of the survived cells to the number of the cells on the first day of incubation was calculated as a cell viability value.

OSC19 cells [6] = assay: Level of reactive oxygen species by H2DCFDA staining, fluorescence microscopy; format: cell-based; conditions: 10 μM, 24 hours, FIG. 6
Experimental: Next, change in level of reactive oxygen species by the compounds having a high selectivity to OSC19 was examined. OSC19 cells were seeded onto 24-well glass-bottomed plate at 1×10^5 cells/well, and each compound was added at 10 μM on the following day. Subsequently, the cells were incubated for 24 hours, stained with 2′,7′-dichloro-dihydro-fluorescein-diacetate (H2DCFDA), which is a redox fluorescence indicator, and observed under a fluorescence microscope. In addition, their ability of inducing the reactive oxygen species was evaluated according to the fluorescence intensity. FIG. 6 is fluorescence micrographs of OSC19 cells treated with the compounds given in Table 1, showing the increase in ROS in OSC19 cells scored on 4 rating scales. The “4 rating scales” are as follows.

OSC19 cells [7] = assay: Subcutaneous OSC19 transplant in nude mice, tumor volume and tumor mass; format: in vivo; conditions: 1 mg/kg intraperitoneally once daily from day 5 to day 35 versus saline; FIGS. 9 and 10
Experimental: Next, 1×10^6 OSC19 cells were subcutaneously transplanted into nude mice. After 5 days of transplantation, 1 mg/kg of pimozide or saline was intraperitoneally administered once daily to day 35. Short and long axes of each tumor were measured once every 3-4 days and a volume of the tumor was calculated using the following equation. Tumor volume=(long axis×(short axis)^2)/2 Specific tumor volume=tumor volume on the day measured/tumor volume at the beginning of administration Statistic analysis of the tumor volume was performed using Two-way ANOVA. Each tumor was removed after the treatment experiments and the mass of the tumor was measured. Statistic analysis of the tumor mass was performed using a t-test.

Compound: N.N.[Cl][Pt][Cl] [cisplatin]
- sensitivity to cisplatin (cell viability) [1]: significantly lower in sensitivity to cisplatin

Compound: Sulfasalazine
- mortality of cells (OSC19): about 30%
- sensitivity of OSC19 cells versus HSC4 cells (cell viability) (OSC19 and HSC4 cells [2]): higher sensitivity to sulfasalazine than the HSC4 cells
- inductive effect on intracellular accumulation of reactive oxygen species, OSC19 versus HSC4 (OSC19 and HSC4 cells [3]): selectively in OSC19 cells as in the case of sulfasalazine

Compound: O=C1NCCN1CCN1CCC(c2cn(-c3ccc(F)cc3)c3ccc(Cl)cc23)CC1 [sertindole, Sertindole]
- intracellular ROS level (H2DCFDA-stained / Hoechst33342-stained cells) compared with sulfasalazine (OSC19 cells [4]): intracellular ROS level was higher as compared with a case where sulfasalazine was added at 30 times higher concentration
- inhibition of cell proliferation, OSC19 versus HSC4 (cell viability) (OSC19 and HSC4 cells [5]): cell proliferation was inhibited by the addition of a lower concentration of sertindole for OSC19 than for HSC4

Compound: O=c1[nH]c2ccccc2n1C1CCN(CCCC(c2ccc(F)cc2)c2ccc(F)cc2)CC1 [pimozide, Pimozide]
- increase in ROS in OSC19 cells scored on 4 rating scales (OSC19 cells [6]): significantly great increase in ROS level
- inhibitory effect on cell proliferation, concentration compared with sulfasalazine (OSC19 and HSC4 cells [2]): inhibitory effect on cell proliferation at a lower concentration than sulfasalazine
- sensitivity of OSC19 cells versus HSC4 cells (cell viability) (OSC19 and HSC4 cells [2]): higher sensitivity to pimozide than the HSC4 cells
- inductive effect on intracellular accumulation of reactive oxygen species compared with sulfasalazine (OSC19 and HSC4 cells [3]; pimozide 1, 3, 10 μM versus sulfasalazine 300 μM): significantly greater inductive effect on intracellular accumulation of reactive oxygen species at a significantly lower concentration as compared with sulfasalazine
- inductive effect on intracellular accumulation of reactive oxygen species, OSC19 versus HSC4 (OSC19 and HSC4 cells [3]): inductive effect on intracellular accumulation of reactive oxygen species selectively in OSC19 cells
- tumor volume and tumor mass on day 35 (proliferation of OSC19 cells in mice) (OSC19 cells [7]): inhibition of proliferation of the OSC19 cells
